Assay results reported in paper PMC3669129, “Fast, Non-Competitive and Reversible Inhibition of NMDA-Activated Currents by 2-BFI Confers Neuroprotection” (PLoS ONE, 2013).
Where two headings read alike, the source gives them in different places.

Columns and labels:
NMDA receptors = assay: Whole-cell patch-clamp recording of NMDA-activated current in cultured cortical neurons; assay type: cell-based, rat; settings: for EC50: n = 6–8
Method: (§1) Primary cortical neurons were prepared from embryonic E18 Sprague-Dawley rats and cultured in neurobasal medium supplemented with B27 [24]. Briefly, cortices were explanted and cleaned free of meninges. The cortices were placed in D-Hanks’ solution and digested at 37°C with 0.05% trypsin-EDTA for 6 min. They were subsequently resuspended in DMEM medium supplemented with 20% fetal calf serum and 1% penicillin/streptomycin to stop digestion and were further dissociated into individual cells by trituration and plated on poly-D-lysine-coated glass coverslips in culture dishes at a density of 7×10^5 cells/ml. After the neurons had attached to the coverslips for 2 hrs, the medium was changed to neurobasal medium containing 2% B27 supplement. Neurons were incubated at 37°C in a humidified atmosphere of 5% CO2 for 7–8 days before electrophysiological experiments.
Whole-cell patch-clamp recordings were carried out at room temperature (22–25°C) using an Axopatch 700A patch-clamp amplifier (Axon Instruments, Inverurie, Scotland). Data acquisition was achieved using a DigiData 1322A with pClamp 9.0 software. The acquisition rate was 10 kHz and signals were filtered at 5 kHz. Patch electrodes were pulled with a Flaming/Brown micropipette puller (Sutter Instruments, Novato, CA) and fire-polished. […] For the voltage-clamp recordings, the capacity transients were cancelled using the resistance capacitance circuit within the amplifier. After the formation of whole-cell configuration, access resistances were generally <15 MΩ. Series resistance compensation was set to 70%–90%. The liquid junction potential was approximately 2 mV and was auto-adjusted each time by pipette offset. To record NMDA/AMPA-activated currents, the external solution [(containing (mM): NaCl 150, KCl 5, CaCl2 0.2, glucose 10 and HEPES 10, pH adjusted to 7.4 with NaOH)] and the pipette solution [containing (mM): KCl 140, MgCl2 2.5, HEPES 10, EGTA 11, ATP 5, pH adjusted to 7.3 with KOH] were used. For voltage-clamp recordings, the membrane potential was held at −70 mV, unless noted otherwise. Drug solutions were prepared in extracellular solutions and applied to neurons by pressure using the 8-Channel Focal Perfusion System (ALA Scientific Instruments, Farmingdale, NY). Neurons were bathed constantly in extracellular solution between drug applications. Drug solution exchange was accomplished by electronic control.
Patch-clamp data was processed using Clampfit 9.0 (Axon Instruments) and then analyzed in Origin 7.5 (OriginLab, Northampton, MA). The dose-response curve was fitted to the logistic equation: y = (A1–A2)/[1+ (x/x0 )^p]+A2, where y is the response, A1 and A2 are the maximum and minimum response, respectively, x0 is the concentration corresponding to half-maximal effect, x is the drug concentration, and p is the Hill coefficient.
The onset and offset rates of 2-BFI were measured from the recordings by the binding kinetic protocol, where a single concentration of 2-BFI was applied in the constant presence of agonists. Tauon and Tauoff were obtained by a single exponential function fit: I = A×[1-exp(-t/τ)]+I 0, where I is the current, I 0 is the steady-state amplitude of the current, A is the difference between the peak and steady state current amplitudes, t is time, and τ is the time constant.

[1] = biological target: [3H]2-BFI binding sites (I2-imidazoline receptors); design: method as in PMID 9228188; settings: cerebral cortex; read-out: Ki for a single class of [3H]2-BFI binding sites; cited from earlier work
rodents = tested on: rodents; design: method as in PMID 19508825, PMID 20840843, PMID 22771326, PMID 19083996, PMID 21303658; settings: previous animal studies; cited from earlier work
[2] = design: method as in PMID 9228188; settings: cited from earlier work
cortical neurons = assay: Neuroprotection against NMDA excitotoxicity (nuclear staining, Alamar Blue viability); assay type: cell-based, rat; settings: for number of condensed nuclei (NMDA-induced neuronal death): nuclear staining of cortical neurons treated with NMDA
Method: as §1
After 7 days-in-vitro, cortical neurons were treated with the specific inhibitor for 15 min prior to the addition of 100 µM glutamate or 200 µM NMDA at 37°C. The plates were then incubated for up to 24 h at 37°C in the presence or absence of inhibitors. Untreated cells were also included as controls. At the end of the treatment period, cells were either fixed for staining or subjected to a neuronal viability assay using Alamar Blue (Invitrogen). Stained cells were examined under a fluorescent microscope (Carl Zeiss, AX10 vert 200M), and digital images were taken and analyzed using Image J software (http://rsbweb.nih.gov/ij/). The viability of cortical neurons treated with NMDA, and with or without inhibitors as mentioned, was assayed using an Alamar Blue assay (Invitrogen). Briefly, a 1∶10 dilution of Alamar blue was added to cells for 1 h at 37°C. One third of the medium was removed and read in a 96-well plate using a plate reader with λEx = 530 nm and λEm = 590 nm. At minimum, a triplicate reading was obtained per experiment with three independent repeats.

[3] = tested on: NMDA receptor-mediated [Ca2+]i influx; assay: Ratiometric Fura-2 measurement of NMDA-evoked [Ca2+]i in cortical neurons; assay type: cell-based, mouse; settings: for reversibility of block of NMDA receptor-mediated [Ca2+]i influx on removal of inhibitor: MK801 10 µM, 2-BFI 200 µM, memantine 10 µM, NMDA 100 µM, wash with PSS, n = 20 cells per treatment
Method: Ratiometric measurement of [Ca^2+]i was performed using Fura-2 AM [25]. Briefly, mouse cortical neurons at 7 days-in-vitro on glass coverslips were loaded with 5 µM Fura-2-AM (Molecular Probes, Eugene, CA) plus 0.02% pluronic (Life Technologies, INC, Burlington, ON, Canada) for 30 min at 37°C. After rinsing with PSS Mg^2+ free buffer containing 2 mM HEPES (pH 7.2), 140 mM NaCl, 5 mM KCl, 2.3 mM CaCl2, and 10 mM glucose, and stabilized in the same buffer for 5 min, Fura-2 intensities were measured using a Northern Eclipse Digital Ratio Image System (EMPIX, Mississauga, ON, Canada) with an Axiovert 200 camera and light source (Zeiss, Thornwood, NY). Fura-2 fluorescence was measured at 510 nm emission with 340/380 nm dual excitation selected by a DG-5 system (Sutter Instrument Company, Novato, CA). [Ca^2+]i concentration was represented by the ratio of florescence intensity between the two excitation wavelengths of R340/380 of Fura-2 after correction for background. R340/380 for 10 cells in one field of each coverslip was averaged. The basal level of [Ca^2+]i was recorded for 20 sec, followed by the application of inhibitors. […] [Ca^2+]i was recorded for 60–100 sec. After washing with PSS buffer for 300 sec, PSS buffer containing 45 mM KCl was added to neurons to record changes in [Ca^2+]i for 60 sec to show viability of neurons. All measurements were repeated for at least 3 times. The data was analyzed using Microsoft Excel and presented as the mean of three experiments.

rat cortical neurons = assay: Effect of 2-BFI alone on neuronal excitability (current and membrane potential); assay type: cell-based; settings: 3–1000 µM 2-BFI
Method: as §1
(§2) Whole-cell patch-clamp recordings were carried out at room temperature (22–25°C) using an Axopatch 700A patch-clamp amplifier (Axon Instruments, Inverurie, Scotland). Data acquisition was achieved using a DigiData 1322A with pClamp 9.0 software. The acquisition rate was 10 kHz and signals were filtered at 5 kHz. Patch electrodes were pulled with a Flaming/Brown micropipette puller (Sutter Instruments, Novato, CA) and fire-polished. […]

AMPA receptor = assay: Whole-cell patch-clamp recording of AMPA-activated current in cultured cortical neurons; assay type: cell-based, rat; settings: 200 µM 2-BFI; 100 µM AMPA; paired t-test P>0.05, n = 8
Method: as §1, §2

[4] = tested on: transient cerebral ischemia; design: method as in PMID 19508825, PMID 20840843, PMID 22771326; settings: rodent model of stroke; cited from earlier work
[5] = tested on: spectrin breakdown product (SBP); assay type: cell-based, rat; settings: 2 h treatment with NMDA; Western blot
NMDAR = settings: read-out: IC50 of memantine; at −70 mV; ref not given; cited from earlier work

c1ccc2oc(C3=NCCN3)cc2c1 [2-BFI, 2-(2-benzofu-ranyl)-2-imidazoline]
average reversal potential of current activated by NMDA and glycine (NMDA receptors; 30 µM NMDA and 1 µM glycine in the presence of 200 µM 2-BFI, n = 6): 2.8±3.2 mV
IC50 (NMDA receptors; 30 µM NMDA plus 1 µM glycine, 2-BFI 10–2000 µM pre-applied 30 s, −70 mV, n = 6, read-out: IC50 for inhibition of NMDA-activated current): 124 ± 13.1 µM
slope factor of the concentration-response curve for inhibition of NMDA-activated current (NMDA receptors; 30 µM NMDA plus 1 µM glycine, −70 mV, n = 6): 1.2±0.1
effect on Emax of NMDA and glycine (NMDA receptors; 200 µM 2-BFI): greatly reduced
inhibition of NMDA-induced currents (NMDA receptors; 200 µM 2-BFI, 30 µM NMDA plus 1 µM glycine, paired t-test P<0.001, n = 8): marked inhibition
voltage dependence of average inhibition of NMDA-activated current (NMDA receptors; 200 µM 2-BFI, membrane potentials from −60 mV to +60 mV, ANOVA P>0.05, n = 6): not significantly different
mode of NMDAR antagonism (NMDA receptors; EC50s and slope factors of NMDA and glycine unchanged by 200 µM 2-BFI): non-competitive antagonist
reversibility of inhibition of NMDA-activated current (NMDA receptors; after a few seconds of washing): fully reversible
Kd (NMDA receptors; from fitted kinetic values, read-out: Kd = Koff/Kon): 305.94 ± 0.3 µM
Koff (NMDA receptors; kinetic protocol, constant presence of 30 µM NMDA plus 1 µM glycine, single exponential fit): 0.67 ± 0.02 s⁻¹
Ki [1]: 0.0098 µM
side effects of administration to rodents (rodents): no visible side effects
crossing of the blood brain barrier [2]: able to cross the blood brain barrier
protection against NMDA toxicity, Alamar blue assay (cortical neurons; dose- and time-course, paired t-test P<0.01, n = 8): Dose-dependent neuroprotection
number of condensed nuclei (NMDA-induced neuronal death) (cortical neurons): reduced
effect on NMDA-evoked [Ca2+]i influx ([3]; 10–1000 µM 2-BFI, 100 µM NMDA, n = 20 cells per dose point): significantly suppressed
reversibility of block of NMDA receptor-mediated [Ca2+]i influx on removal of inhibitor [3]: able to respond to NMDA (100 µM) almost immediately
effect of 2-BFI alone on membrane potential (rat cortical neurons): nor affected the membrane potential
current induced by 2-BFI alone (rat cortical neurons; −50 mV): neither induced any detectable current
inhibition of AMPA-induced currents (AMPA receptor): did not inhibit
neuroprotection against transient cerebral ischemia [4]: potently and dose-dependently neuroprotective
level of spectrin breakdown product (SBP) [5]: effectively reduced

c1ccc2c(c1)OCC(C1=NCCN1)O2 (stereo not shown) [Idazoxan]
crossing of the blood brain barrier [2]: readily cross the blood brain barrier
neuroprotection against transient cerebral ischemia [4]: potently and dose-dependently neuroprotective

C[C@]12N[C@H](Cc3ccccc31)c1ccccc12 [MK801]
number of condensed nuclei (NMDA-induced neuronal death) (cortical neurons): reduced
reversibility of block of NMDA receptor-mediated [Ca2+]i influx on removal of inhibitor [3]: non-reversibly blocked
level of spectrin breakdown product (SBP) [5]: effectively reduced

CN[C@H](CC(=O)O)C(=O)O [NMDA, N-methyl-D-aspartic acid]
slope factor of NMDA concentration-response curve (NMDA receptors; in the absence of 2-BFI, 1 µM glycine): 1.25±0.1
EC50 (NMDA receptors; in the absence of 2-BFI, 1 µM glycine, read-out: EC50 of NMDA for current activation): 33.7 ± 4.3 µM
slope factor of NMDA concentration-response curve (NMDA receptors; in the presence of 200 µM 2-BFI, 1 µM glycine): 1.25±0.6

NCC(=O)O [glycine]
slope factor of glycine concentration-response curve (NMDA receptors; in the absence of 2-BFI, 30 µM NMDA): 0.39±0.2
EC50 (NMDA receptors; in the absence of 2-BFI, 30 µM NMDA, read-out: EC50 of glycine for current activation): 1.52 ± 1.6 µM
slope factor of glycine concentration-response curve (NMDA receptors; in the presence of 200 µM 2-BFI, 30 µM NMDA): 0.58±0.6

CC12CC3CC(C)(C1)CC(N)(C3)C2 [memantine]
number of condensed nuclei (NMDA-induced neuronal death) (cortical neurons): reduced
reversibility of block of NMDA receptor-mediated [Ca2+]i influx on removal of inhibitor [3]: able to respond to NMDA (100 µM) almost immediately
level of spectrin breakdown product (SBP) [5]: effectively reduced
IC50 (NMDAR): 1.2 µM
